Where “and” joins values, the source holds several entries; their conditions need not be identical. Equal entries are not always repeated. Where two headings read alike, the source gives them in different places.
Assays:
M. tuberculosis H37Rv = assay: MIC determination in different media; assay type: cell-based; settings: Mycobacterium tuberculosis, read-out: Minimum inhibitory concentration (MIC)
MtbCoaBC = MtbCoaBC (Mycobacterium tuberculosis, UniProt P9WNZ1); assay: biochemical; assay type: biochemical; settings: for activity at 0.03125 µM / activity at 0.0625 µM / activity at 0.25 µM / activity at 0.5 µM / activity at 1 µM / activity at 2 µM: relative to average DMSO CT; for Activity R1 / Activity R3: slope of absorbance at 360nm vs time (s)
Sequence of MtbCoaBC (P9WNZ1 whole entry): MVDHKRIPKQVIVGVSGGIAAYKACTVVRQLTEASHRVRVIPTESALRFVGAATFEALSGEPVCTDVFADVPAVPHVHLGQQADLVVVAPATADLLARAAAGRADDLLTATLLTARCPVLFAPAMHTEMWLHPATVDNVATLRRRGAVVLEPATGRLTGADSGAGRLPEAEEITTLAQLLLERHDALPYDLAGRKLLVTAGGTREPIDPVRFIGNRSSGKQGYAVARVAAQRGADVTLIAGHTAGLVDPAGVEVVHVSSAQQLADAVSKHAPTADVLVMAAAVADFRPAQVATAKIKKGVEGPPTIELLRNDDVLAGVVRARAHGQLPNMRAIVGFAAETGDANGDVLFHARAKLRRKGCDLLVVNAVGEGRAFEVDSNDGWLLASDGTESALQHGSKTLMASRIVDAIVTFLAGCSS

How did the MIC (M. tuberculosis H37Rv; 7H9/ADC/Glycerol) turn out when `Cc1ccc(-c2oc3cc(O)cc(O)c3c(=O)c2O)cc1C` [compound 2d] was run?
Its MIC is > 250 µM.

And the MIC (M. tuberculosis H37Rv; 7H9/Cholesterol/Tyloxapol)?
The MIC was > 250 µM.

And the MIC (M. tuberculosis H37Rv; GAST/Fe)?
Its MIC is > 250 µM.

And the inhibition at 0.03125 µM (MtbCoaBC; 2d at 0.03125 uM, replicate R1, read-out: Inhibition % R1)?
The inhibition at 0.03125 µM was 0.7%.

What about the activity at 0.03125 µM (MtbCoaBC; 2d at 0.03125 uM, replicate R1, read-out: Activity % R1) of the same compound?
The activity at 0.03125 µM was 99.3%.

What about the “Activity R1” value (MtbCoaBC; 2d at 0.03125 uM, replicate R1) of the same compound?
Its value is 0.0001845.

And the inhibition at 0.03125 µM (MtbCoaBC; 2d at 0.03125 uM, replicate R2, read-out: Inhibition % R2)?
Its inhibition at 0.03125 µM is 0.97%.

And the activity at 0.03125 µM (MtbCoaBC; 2d at 0.03125 uM, replicate R2, read-out: Activity % R2)?
Its activity at 0.03125 µM is 99%.

What about the inhibition at 0.03125 µM (MtbCoaBC; 2d at 0.03125 uM, replicate R3, read-out: Inhibition % R3) of the same compound?
The inhibition at 0.03125 µM was 0.58%.

And the activity at 0.03125 µM (MtbCoaBC; 2d at 0.03125 uM, replicate R3, read-out: Activity % R3)?
The activity at 0.03125 µM was 99.4%.

What about the “Activity R3” value (MtbCoaBC; 2d at 0.03125 uM, replicate R3) of the same compound?
Its value is 0.0001847.

What about the inhibition at 0.0625 µM (MtbCoaBC; 2d at 0.0625 uM, replicate R1, read-out: Inhibition % R1) of the same compound?
The inhibition at 0.0625 µM was 8.46%.

What about the activity at 0.0625 µM (MtbCoaBC; 2d at 0.0625 uM, replicate R1, read-out: Activity % R1) of the same compound?
The activity at 0.0625 µM was 91.5%.

What about the “Activity R1” value (MtbCoaBC; 2d at 0.0625 uM, replicate R1) of the same compound?
Its value is 0.0001701.

And the inhibition at 0.0625 µM (MtbCoaBC; 2d at 0.0625 uM, replicate R2, read-out: Inhibition % R2)?
The inhibition at 0.0625 µM was 5.42%.

What about the activity at 0.0625 µM (MtbCoaBC; 2d at 0.0625 uM, replicate R2, read-out: Activity % R2) of the same compound?
Its activity at 0.0625 µM is 94.6%.

What about the inhibition at 0.0625 µM (MtbCoaBC; 2d at 0.0625 uM, replicate R3, read-out: Inhibition % R3) of the same compound?
The inhibition at 0.0625 µM was 3.86%.

What about the activity at 0.0625 µM (MtbCoaBC; 2d at 0.0625 uM, replicate R3, read-out: Activity % R3) of the same compound?
The activity at 0.0625 µM was 96.1%.

What about the “Activity R3” value (MtbCoaBC; 2d at 0.0625 uM, replicate R3) of the same compound?
Its value is 0.0001786.

What about the inhibition at 0.25 µM (MtbCoaBC; 2d at 0.25 uM, replicate R1, read-out: Inhibition % R1) of the same compound?
Its inhibition at 0.25 µM is 14.5%.

What about the activity at 0.25 µM (MtbCoaBC; 2d at 0.25 uM, replicate R1, read-out: Activity % R1) of the same compound?
Its activity at 0.25 µM is 85.5%.

What about the “Activity R1” value (MtbCoaBC; 2d at 0.25 uM, replicate R1) of the same compound?
The value was 0.0001588.

And the inhibition at 0.25 µM (MtbCoaBC; 2d at 0.25 uM, replicate R2, read-out: Inhibition % R2)?
Its inhibition at 0.25 µM is 31.1%.

What about the activity at 0.25 µM (MtbCoaBC; 2d at 0.25 uM, replicate R2, read-out: Activity % R2) of the same compound?
Its activity at 0.25 µM is 68.9%.

What about the inhibition at 0.25 µM (MtbCoaBC; 2d at 0.25 uM, replicate R3, read-out: Inhibition % R3) of the same compound?
Its inhibition at 0.25 µM is 29.5%.

And the activity at 0.25 µM (MtbCoaBC; 2d at 0.25 uM, replicate R3, read-out: Activity % R3)?
The activity at 0.25 µM was 70.5%.

And the “Activity R3” value (MtbCoaBC; 2d at 0.25 uM, replicate R3)?
The value was 0.000131.

And the inhibition at 0.5 µM (MtbCoaBC; 2d at 0.5 uM, replicate R1, read-out: Inhibition % R1)?
Its inhibition at 0.5 µM is 41%.

What about the activity at 0.5 µM (MtbCoaBC; 2d at 0.5 uM, replicate R1, read-out: Activity % R1) of the same compound?
Its activity at 0.5 µM is 59%.

And the “Activity R1” value (MtbCoaBC; 2d at 0.5 uM, replicate R1)?
Its value is 0.0001096.

And the inhibition at 0.5 µM (MtbCoaBC; 2d at 0.5 uM, replicate R2, read-out: Inhibition % R2)?
Its inhibition at 0.5 µM is 49.6%.

What about the activity at 0.5 µM (MtbCoaBC; 2d at 0.5 uM, replicate R2, read-out: Activity % R2) of the same compound?
Its activity at 0.5 µM is 50.4%.

And the inhibition at 0.5 µM (MtbCoaBC; 2d at 0.5 uM, replicate R3, read-out: Inhibition % R3)?
Its inhibition at 0.5 µM is 54%.

And the activity at 0.5 µM (MtbCoaBC; 2d at 0.5 uM, replicate R3, read-out: Activity % R3)?
Its activity at 0.5 µM is 46%.

What about the “Activity R3” value (MtbCoaBC; 2d at 0.5 uM, replicate R3) of the same compound?
The value was 8.549e-5 and 0.000085493.

And the inhibition at 1 µM (MtbCoaBC; 2d at 1 uM, replicate R1, read-out: Inhibition % R1)?
Its inhibition at 1 µM is 63%.

What about the activity at 1 µM (MtbCoaBC; 2d at 1 uM, replicate R1, read-out: Activity % R1) of the same compound?
The activity at 1 µM was 37%.

And the “Activity R1” value (MtbCoaBC; 2d at 1 uM, replicate R1)?
Its value is 6.875e-5 and 0.000068751.

What about the inhibition at 1 µM (MtbCoaBC; 2d at 1 uM, replicate R2, read-out: Inhibition % R2) of the same compound?
The inhibition at 1 µM was 75%.

What about the activity at 1 µM (MtbCoaBC; 2d at 1 uM, replicate R2, read-out: Activity % R2) of the same compound?
Its activity at 1 µM is 25%.

What about the inhibition at 1 µM (MtbCoaBC; 2d at 1 uM, replicate R3, read-out: Inhibition % R3) of the same compound?
Its inhibition at 1 µM is 72.4%.

And the activity at 1 µM (MtbCoaBC; 2d at 1 uM, replicate R3, read-out: Activity % R3)?
Its activity at 1 µM is 27.6%.

What about the “Activity R3” value (MtbCoaBC; 2d at 1 uM, replicate R3) of the same compound?
The value was 5.136e-5 and 0.000051357.

And the inhibition at 2 µM (MtbCoaBC; 2d at 2 uM, replicate R1, read-out: Inhibition % R1)?
The inhibition at 2 µM was 79%.

And the activity at 2 µM (MtbCoaBC; 2d at 2 uM, replicate R1, read-out: Activity % R1)?
Its activity at 2 µM is 21%.

And the “Activity R1” value (MtbCoaBC; 2d at 2 uM, replicate R1)?
Its value is 3.9e-5 and 0.000039000.

What about the inhibition at 2 µM (MtbCoaBC; 2d at 2 uM, replicate R2, read-out: Inhibition % R2) of the same compound?
Its inhibition at 2 µM is 91%.

What about the activity at 2 µM (MtbCoaBC; 2d at 2 uM, replicate R2, read-out: Activity % R2) of the same compound?
The activity at 2 µM was 8.99%.

What about the inhibition at 2 µM (MtbCoaBC; 2d at 2 uM, replicate R3, read-out: Inhibition % R3) of the same compound?
Its inhibition at 2 µM is 85%.

What about the activity at 2 µM (MtbCoaBC; 2d at 2 uM, replicate R3, read-out: Activity % R3) of the same compound?
The activity at 2 µM was 15%.

What about the “Activity R3” value (MtbCoaBC; 2d at 2 uM, replicate R3) of the same compound?
The value was 2.786e-5 and 0.000027864.

And the “Activity R1” value (MtbCoaBC; 2d at […], replicate R1)?
The value was 0.0001624.

What about the “Activity R3” value (MtbCoaBC; 2d at […], replicate R3) of the same compound?
Its value is 0.0001724.

What about the IC50 (MtbCoaBC; CoaB activity, […] CTP, […] PPA, 500 µM L-cysteine, average of three independent experiments ± SD, read-out: IC50 EnzChek MtbCoaBC) of the same compound?
The IC50 was 540 ± 60 nM.
